In US20230345936A1, “NOVEL ENVIRONMENT-FRIENDLY HERBICIDE” (KUNMING INSTITUTE OF BOTANY, CHINESE ACADEMY OF SCIENCES, priority 2022, published 2023):

Assays:
Eupatorium adenophorum = test: Spraying herbicide aqueous solution on Eupatorium adenophorum plants (contact killing); format: in vivo
Method: (1) 25 mL of the methyl 4-hydroxyphenylacetate herbicide aqueous solution prepared in Example 1 was taken and sprayed evenly on the surface of Eupatorium adenophorum plants.
When not sprayed, the Eupatorium adenophorum plant had one pair of top leaves, one head inflorescence, one pair of tender leaves under the top leaves, and three pairs of mature leaves. The plant was healthy and vigorous, with a height of 40-50 cm. […] The uppermost one pair of mature leaves among the three pairs of mature leaves withered in a large area. The lower two pairs of mature leaves began to wither from the edge inwards, and the axillary buds also died. These deaths were irreversible.
(2) 25 mL of the methyl 4-hydroxyphenylacetate herbicide aqueous solution prepared in Example 3 was taken and sprayed evenly on the surface of Eupatorium adenophorum plants.
When not sprayed, the Eupatorium adenophorum plant had one pair of top leaves, one head inflorescence, one pair of tender leaves under the inflorescence, and four pairs of mature leaves. The plant was healthy and vigorous, with a height of 40-50 cm.
(5) 25 mL of the methyl 4-hydroxyphenylacetate herbicide aqueous solutions prepared in Comparative Examples 1 to 2 were taken and sprayed evenly on the surface of Eupatorium adenophorum plants.

[1] = Dissolution of methyl 4-hydroxyphenylacetate in 15% ethanol solution; format: physicochemical; details: 1.82787 g in 50 mL of 15% ethanol solution
Method: The methyl 4-hydroxyphenylacetate was purchased on the market. 1.82787 g of methyl 4-hydroxyphenylacetate was weighed, and added with 50 mL of a 15% absolute ethanol solution for dissolution.

With `COC(=O)Cc1ccc(O)cc1` [methyl 4-hydroxyphenylacetate, Methyl 4-hydroxyphenylacetate] the “effect on Eupatorium adenophorum at use concentration greater than 150 mmol/L” value (Eupatorium adenophorum; sprayed once) was “contact killing effect”, the “time after spraying until old leaves / plant are basically withered” value (Eupatorium adenophorum; use concentration greater than 150 mmol/L) was 4 to 5 days and the “solubility in 15% absolute ethanol solution” value [1] was “could not be sufficiently dissolved”.
